{"source": "patent US9226503B2", "about": "“Composition and method for attraction of emerald ash borer Agrilus planipennis fairmaire (coleoptera: buprestidae)” (Her Majesty the Queen in Right of Canada, as represented by …, priority 2011, dated 2016)", "tested_on": "A. planipennis", "test": "Field trapping 2011 experiment 1: dose-response to (3Z)-lactone with (3Z)-hexenol, dark green traps", "assay_type": "in vivo, Agrilus planipennis", "conditions": "in combination with (3Z)-hexenol", "experimental": "Two trapping experiments were conducted in green and white ash plantations (F. pennsylvanica Marsch and F. americana L.) located 40-60 km southeast of Sarnia, Ontario in 2011. Trees were 20-30 yr old, 5-8 m tall, 12-18 cm in diameter, and spaced 2-3 m apart within and between rows. Five sites were used in total: four were green ash and the fifth was a white ash plantation. Trees at four of the sites generally appeared healthy with few or no signs of decline and only a few with obvious signs and symptoms of infestation by A. planipennis. At the fifth site, obvious crown decline and signs of infestation were apparent on about one-quarter of trees.\nGreen prism sticky traps (0.30 cm×35.00 cm×58.75 cm) (Synergy Semiochemicals Corp., Burnaby, BC) were used in all field trials, deployed using modified umbrella rig spreaders (Zing Products, Westport, Mass.). Traps were spaced 20-25 m apart and lure treatments replicated in randomized complete block designs. Traps were deployed either using ropes tied between two trees or using a single line over a canopy branch, as described further below for each specific experimental objective. Traps were typically checked every 2 wk and A. planipennis were collected, counted, and sexed.\nThe two trapping experiments tested the (3Z)-lactone with and without (3Z)-hexenol, at different dosages and heights within the canopy. Experiment 1 was designed to determine the optimum release rate for attractiveness of (3Z)-lactone to male A. planipennis, in combination with (3Z)-hexenol. Dark green (540-nm wavelength) sticky traps (Francese et al 2010a) were suspended using ropes tied between two trees in the mid-canopy and baited with a (3Z)-hexenol lure at release rate of (50-100 mg/day) (Synergy Semiochemicals, Burnaby, B.C.) plus a rubber septum (Wheaton) loaded with either 0, 0.1 mg, 1.0 mg, 10.0 mg, or 50.0 mg of (3Z)-lactone. Respective release rates of the lactone were estimated as ˜2.4 μg/day; ˜22 μg/day; ˜160 μg/day; and −600 μg/day, based on volatile collections on Super-Q® at 25° C. (Silk et al. 2011). (3Z)-Lactone lures were estimated to last three weeks in the field and were replaced once. Trapping was conducted from 9 June-21 July. Lure treatments were replicated 10 times with eight blocks at one site (Anika Mills) and two blocks at a second site (Nauvoo Ranch). (3Z)-Hexenol lures were not changed during the experiment.\nNumbers of A. planipennis captured in the trapping experiments were subjected to ANOVA separately for males and females. In experiment 1, ANOVA was used to test the effect of release rate on captures of females and males. Holm-Sidak comparisons were made between treatments and the control, (3Z)-hexenol alone. In experiment 2, we used the general linear model: mean catch=lactone+GLV+trap height+lactone*trap height+GLV*trap height+lactone*GLV+lactone*GLV*trap height+error, in SAS GLM (SAS Institute 1999-2003). Residuals were tested for homogeneity of variance and normality, and a ln(y+1) transformation was used where necessary. We present the untransformed last squares treatment means and their standard errors, along with statistics (P>F) from ANOVA of transformed data.", "data": [{"compound": "O=C1C/C=C\\CCCCCCCCO1", "note": "[(3Z)-lactone, (3Z)-dodecen-12-olide]", "values": [{"measurement": "release rate beyond which captures of males decline", "setting": "dark green traps", "value": "ca. 160 μg/day"}, {"measurement": "trap capture of males, effect of (3Z)-lactone release rate", "setting": "0-50.0 mg lures, p=0.035", "value": "varied significantly with (3Z)-lactone release rate"}, {"measurement": "trap capture of females, effect of (3Z)-lactone release rate", "setting": "0-50.0 mg lures, p=0.315", "value": "not influenced by (3Z)-lactone release rate"}, {"measurement": "captures of males compared to (3Z)-hexenol alone, 0.1 mg dose", "setting": "0.1 mg lure, release rate 2.4 μg/day at 25° C., p=0.003", "value": "highest"}, {"measurement": "captures of males compared to (3Z)-hexenol alone, 1.0 mg dose", "setting": "1.0 mg lure, p=0.052", "value": "marginal increase in captures of males"}]}]}
